Assay results: patent US9670147B2, “Antioxidant inflammation modulators: oleanolic acid derivatives with amino and other modifications at C-17” (REATA PHARMACEUTICALS, INC., priority 2008, dated 2017)

Experiments:
TrxR1 = assay: Nrf2 target gene induction in MDA-MB-435 cells, qPCR: TrxR1; assay type: cell-based, human; details: 16 hours
Method: (§1) FIGS. 44, 46 and 47—Induction of HO-1, TrxR1 and γ-GCS. FIGS. 44A-C, 46A-C, 47A-C: MDA-MB-435 human melanoma cells were treated with vehicle (DMSO) or the indicated compounds (400 nM) for 16 hours. HO-1, thioredoxin reductase-1 (TrxR1), and γ-glutamylcysteine synthetase (γ-GCS) mRNA levels were quantified using qPCR and were normalized relative to a DMSO-treated sample run in parallel. Values are averages of duplicate wells. FIGS. 44D, 46D, 47D: MDA-MB-435 cells were treated with vehicle (DMSO) or the indicated compounds at 400 nM for 16 hours. HO-1, TrxR1 and actin protein levels were assayed by immunoblotting.
(§2) FIG. 45. Induction of HO-1, TrxR1 and γ-GCS. FIGS. 45 A-C: MDA-MB-435 cells were treated with vehicle (DMSO) or the indicated compounds at 160 nM for 16 hours. HO-1, TrxR1, and γ-GCS mRNA levels were quantified by qPCR and were normalized relative to a DMSO-treated sample run in parallel. Values are averages of duplicate wells. FIGS. 44D, 46D, 47D: MDA-MB-435 cells were treated with vehicle (DMSO) or the indicated compounds at 160 nM for 16 hours. HO-1, TrxR1 and actin protein levels were assayed by immunoblotting.
(§3) MDA-MB-435 human melanoma cells were treated with vehicle (DMSO) or the indicated compounds and concentrations for 16 hours. HO-1, thioredoxin reductase-1 (TrxR1), γ-glutamylcysteine synthetase (γ-GCS), and ferritin heavy chain mRNA levels were quantified using qPCR and were normalized relative to a DMSO-treated sample run in parallel. Values are averages of duplicate wells. Primer sequences are as follows.

γ-GCS = assay: Nrf2 target gene induction in MDA-MB-435 cells, qPCR: γ-GCS; assay type: cell-based, human; details: 16 hours
Method: as §1, §2, §3

[1] = system: IFNγ-induced NO production in RAW264.7 macrophages; assay: Suppression of IFNγ-induced NO production (Griess reagent); assay type: cell-based, mouse; details: Mus musculus, 2 h pre-treatment, then 20 ng/ml IFNγ for 24 hours
Method: (§4) FIGS. 1-34. Inhibition of NO Production. RAW264.7 macrophages were pre-treated with DMSO or drugs at various concentrations (nM) for 2 hours, then treated with 20 ng/ml IFNγ for 24 hours. NO concentration in media was determined using the Griess reagent system; cell viability was determined using WST-1 reagent. FIGS. 49-52. Inhibition of NO Production. RAW264.7 macrophages were pre-treated with DMSO or drugs at various concentrations (nM) for 2 hours, then treated with 20 ng/ml IFNγ for 24 hours. NO concentration in media was determined using the Griess reagent system; cell viability was determined using WST-1 reagent. RAW264.7 macrophages were pre-treated with DMSO or drugs for 2 hours, then treated with recombinant mouse IFNγ (Sigma) for 24 hours. NO concentration in media was determined using the Griess reagent system (Promega). Cell viability was determined using WST-1 reagent (Roche).

RAW264.7 macrophages = assay: Cell viability, WST-1 reagent; assay type: cell-based, mouse; details: Mus musculus, 2 h pre-treatment, then 20 ng/ml IFNγ for 24 hours
Method: as §4

HO-1 = assay: Nrf2 target gene induction in MDA-MB-435 cells, qPCR: HO-1; assay type: cell-based, human; details: 16 hours
Method: FIG. 43. Induction of HO-1. FIGS. 43A and 43B: MDA-MB-435 human melanoma cells were treated with vehicle (DMSO) or the indicated compounds and concentrations for 16 hours. HO-1 mRNA levels were quantified using qPCR and were normalized relative to a DMSO-treated sample run in parallel. Values are averages of duplicate wells. FIG. 43C: MDA-MB-435 cells were treated with vehicle (DMSO) or the indicated compounds at 400 nM for 16 hours. HO-1, TrxR1 and actin protein levels were assayed by immunoblotting. Actin served as a loading control.
as §1, §2, §3

iNOS = iNOS Western blot in RAW264.7 mouse macrophages; assay type: cell-based; details: compounds at 300 nM for 2 hours, 24 hour induction by IFNγ, read-out: iNOS suppr. WB
Method: FIGS. 38-40. iNOS Western Blot in RAW264.7 mouse macrophages. Cells were pretreated by compounds at 300 nM for 2 hours, followed by 24 hour induction by IFNγ (20 ng/ml). […]

Compound	IC50 [1] [µM]	TrxR1 induction (TrxR1; 160 nM)	γ-GCS induction (γ-GCS; 160 nM)	IC50 (RAW264.7 macrophages) [µM]	HO-1 induction (HO-1; 160 nM)	TrxR1 induction (TrxR1; 400 nM)	γ-GCS induction (γ-GCS; 400 nM)	inhibition at 0.3 µM (iNOS) [%]	HO-1 induction (HO-1; 400 nM)
CNC(=O)N[C@]12CCC(C)(C)C[C@H]1[C@H]1C(=O)C=C3[C@@]4(C)C=C(C#N)C(=O)C(C)(C)[C@@H]4CC[C@@]3(C)[C@]1(C)CC2 [Compound 63172, 1-((4aS,6aR,6bS,8aR,12aS,14aR,14bS)-11-cyano-2,2,6a,6b,9,9,12a-heptamethyl-10,14-dioxo-1,2,3,4,4a,5,6,6a,6b,7,8,8a,9,10,12a,14,14a,14b-octadecahydropicen-4a-yl)-3-methylurea]	0.03	43% of induction observed for RTA 402	27% of induction observed for RTA 402	> 0.2	4% of induction observed for RTA 402	–	–	–	–
CC(=O)N[C@]12CCC(C)(C)C[C@H]1[C@H]1C(=O)C=C3[C@@]4(C)C=C(C#N)C(=O)C(C)(C)[C@@H]4CC[C@@]3(C)[C@]1(C)CC2 [Compound 63170, N-((4aS,6aR,6bS,8aR,12aS,14aR,14bS)-11-cyano-2,2,6a,6b,9,9,12a-heptamethyl-10,14-dioxo-1,2,3,4,4a,5,6,6a,6b,7,8,8a,9,10,12a,14,14a,14b-octadecahydropicen-4a-yl)acetamide]	0.0108	–	–	> 0.2	–	–	–	–	–
CC1(C)CC[C@]2(NC(=O)OCc3ccccc3)CC[C@]3(C)[C@H](C(=O)C=C4[C@@]5(C)C=C(C#N)C(=O)C(C)(C)[C@@H]5CC[C@]43C)[C@@H]2C1 [Compound 63174, benzyl-(4aS,6aR,6bS,8aR,12aS,14aR,14bS)-11-cyano-2,2,6a,6b,9,9,12a-heptamethyl-10,14-dioxo-1,2,3,4,4a,5,6,6a,6b,7,8,8a,9,10,12a,14,14a,14b-octadecahydropicen-4a-ylcarbamate]	0.026	–	–	0.08	–	–	–	–	–
CC1(C)CC[C@]2(NS(=O)(=O)c3cccs3)CC[C@]3(C)[C@H](C(=O)C=C4[C@@]5(C)C=C(C#N)C(=O)C(C)(C)[C@@H]5CC[C@]43C)[C@@H]2C1 [Compound 63187, N-((4aS,6aR,6bS,8aR,12aS,14aR,14bS)-11-cyano-2,2,6a,6b,9,9,12a-heptamethyl-10,14-dioxo-1,2,3,4,4a,5,6,6a,6b,7,8,8a,9,10,12a,14,14a,14b-octadecahydropicen-4a-yl)thiophene-2-sulfonamide]	0.002 to 0.005	–	–	0.1	–	90% of induction observed for RTA 402	90% of induction observed for RTA 402	> 90	32% of induction observed for RTA 402
CC(C)OC(=O)N[C@]12CCC(C)(C)C[C@H]1[C@H]1C(=O)C=C3[C@@]4(C)C=C(C#N)C(=O)C(C)(C)[C@@H]4CC[C@@]3(C)[C@]1(C)CC2 [Compound 63184, isopropyl-(4aS,6aR,6bS,8aR,12aS,14aR,14bS)-11-cyano-2,2,6a,6b,9,9,12a-heptamethyl-10,14-dioxo-1,2,3,4,4a,5,6,6a,6b,7,8,8a,9,10,12a,14,14a,14b-octadecahydropicen-4a-ylcarbamate]	0.0145	–	–	0.075	–	–	–	–	–

More lines, in order of falling IC50 [1], values ahead:

IC50 [1] [µM]	Compound	TrxR1 induction (TrxR1; 160 nM)	γ-GCS induction (γ-GCS; 160 nM)	IC50 (RAW264.7 macrophages) [µM]	HO-1 induction (HO-1; 160 nM)	TrxR1 induction (TrxR1; 400 nM)	γ-GCS induction (γ-GCS; 400 nM)	inhibition at 0.3 µM (iNOS) [%]	HO-1 induction (HO-1; 400 nM)
~0.12	CCN[C@]12CCC(C)(C)C[C@H]1[C@H]1C(=O)C[C@@H]3[C@@]4(C)C=C(C#N)C(=O)C(C)(C)[C@@H]4CC[C@@]3(C)[C@]1(C)CC2 [Compound 63238, (4aR,6aR,6bR,8aS,12aS,12bR,14aR,14bR)-8a-(ethylamino)-4,4,6a,6b,11,11,14b-heptamethyl-3,13-dioxo-3,4,4a,5,6,6a,6b,7,8,8a,9,10,11,12,12a,12b,13,14,14a,14b-icosahydropicene-2-carbonitrile]	–	–	> 0.2	–	–	–	–	–
0.027	CC1(C)CC[C@]2(NC(=O)N3CCOCC3)CC[C@]3(C)[C@H](C(=O)C=C4[C@@]5(C)C=C(C#N)C(=O)C(C)(C)[C@@H]5CC[C@]43C)[C@@H]2C1 [Compound 63188, N-((4aS,6aR,6bS,8aR,12aS,14aR,14bS)-11-cyano-2,2,6a,6b,9,9,12a-heptamethyl-10,14-dioxo-1,2,3,4,4a,5,6,6a,6b,7,8,8a,9,10,12a,14,14a,14b-octadecahydropicen-4a-yl)morpholine-4-carboxamide]	–	–	> 0.2	–	–	–	–	–
0.0135	CN(C)C(=O)N[C@]12CCC(C)(C)C[C@H]1[C@H]1C(=O)C=C3[C@@]4(C)C=C(C#N)C(=O)C(C)(C)[C@@H]4CC[C@@]3(C)[C@]1(C)CC2 [Compound 63180, 3-((4aS,6aR,6bS,8aR,12aS,14aR,14bS)-11-cyano-2,2,6a,6b,9,9,12a-heptamethyl-10,14-dioxo-1,2,3,4,4a,5,6,6a,6b,7,8,8a,9,10,12a,14,14a,14b-octadecahydropicen-4a-yl)-1,1-dimethylurea]	–	–	0.2	–	–	–	–	–
0.012	CC1(C)CC[C@]2(NC(=O)C(F)(F)F)CC[C@]3(C)[C@H](C(=O)C=C4[C@@]5(C)C=C(C#N)C(=O)C(C)(C)[C@@H]5CC[C@]43C)[C@@H]2C1 [Compound 63171, N-((4aS,6aR,6bS,8aR,12aS,14aR,14bS)-11-cyano-2,2,6a,6b,9,9,12a-heptamethyl-10,14-dioxo-1,2,3,4,4a,5,6,6a,6b,7,8,8a,9,10,12a,14,14a,14b-octadecahydropicen-4a-yl)-2,2,2-trifluoroacetamide]	–	–	0.09	–	–	–	–	–
0.0075	CCC(=O)N[C@]12CCC(C)(C)C[C@H]1[C@H]1C(=O)C=C3[C@@]4(C)C=C(C#N)C(=O)C(C)(C)[C@@H]4CC[C@@]3(C)[C@]1(C)CC2 [Compound 63189, N-((4aS,6aR,6bS,8aR,12aS,14aR,14bS)-11-cyano-2,2,6a,6b,9,9,12a-heptamethyl-10,14-dioxo-1,2,3,4,4a,5,6,6a,6b,7,8,8a,9,10,12a,14,14a,14b-octadecahydropicen-4a-yl)propionamide]	–	–	0.075	–	–	–	–	–
0.0032	CCOC(=O)N[C@]12CCC(C)(C)C[C@H]1[C@H]1C(=O)C=C3[C@@]4(C)C=C(C#N)C(=O)C(C)(C)[C@@H]4CC[C@@]3(C)[C@]1(C)CC2 [Compound 63168, ethyl-(4aS,6aR,6bS,8aR,12aS,14aR,14bS)-11-cyano-2,2,6a,6b,9,9,12a-heptamethyl-10,14-dioxo-1,2,3,4,4a,5,6,6a,6b,7,8,8a,9,10,12a,14,14a,14b-octadecahydropicen-4a-ylcarbamate]	–	–	0.15	–	–	–	–	–
~0.003	C#CC(=O)N[C@]12CCC(C)(C)C[C@H]1[C@H]1C(=O)C=C3[C@@]4(C)C=C(C#N)C(=O)C(C)(C)[C@@H]4CC[C@@]3(C)[C@]1(C)CC2 [Compound 63246, N-((4aS,6aR,6bS,8aR,12aS,14aR,14bS)-11-cyano-2,2,6a,6b,9,9,12a-heptamethyl-10,14-dioxo-1,2,3,4,4a,5,6,6a,6b,7,8,8a,9,10,12a,14,14a,14b-octadecahydropicen-4a-yl)propiolamide]	–	–	> 0.2	–	66% of induction observed for RTA 402	77% of induction observed for RTA 402	> 90	25% of induction observed for RTA 402
~0.002	CC1(C)CC[C@]2(NS(=O)(=O)CC(F)(F)F)CC[C@]3(C)[C@H](C(=O)C=C4[C@@]5(C)C=C(C#N)C(=O)C(C)(C)[C@@H]5CC[C@]43C)[C@@H]2C1 [Compound 63247, N-((4aS,6aR,6bS,8aR,12aS,14aR,14bS)-11-cyano-2,2,6a,6b,9,9,12a-heptamethyl-10,14-dioxo-1,2,3,4,4a,5,6,6a,6b,7,8,8a,9,10,12a,14,14a,14b-octadecahydropicen-4a-yl)-2,2,2-trifluoroethanesulfonamide]	–	–	0.15	–	76% of induction observed for RTA 402	75% of induction observed for RTA 402	> 90	19% of induction observed for RTA 402
